row,melting point,SMILES
1,130 to 132 °C,Cc1nc(N2CCN(C(=O)c3ccc(F)cc3)C2=O)sc1C(=O)NCc1ccccc1
2,97 to 99 °C,CCOC(=NC(=O)C1CC1)N1Cc2ccccc2-c2ccccc2C1
3,166 to 167 °C,FC(F)C(F)(F)Sc1nc(-c2ccco2)c(-c2ccco2)[nH]1
4,159 to 160 °C,CN1C(=O)C(C)(C)C(=O)N(C)c2ccccc21
5,124 to 128 °C,CC(Cc1c[nH]c2ccccc12)(NC(=O)OC1C2CC3CC(C2)CC1C3)C(=O)NCCc1nc[nH]n1 (stereo not given)
6,67 to 69 °C,CCCCCCCCCCCCCCOc1ccccc1C(=O)Cc1nnn[nH]1
7,80 to 87 °C,CN(C(=O)N1Cc2nc(Cc3ccccc3)n(Cc3ccccc3)c2C[C@H]1CO)c1ccccc1
8,65 to 68 °C,Clc1ccc(C2COCCS2)cc1Cl (stereo not given)
9,86.3 to 87.9 °C,COP(=O)(Cc1nc2cc3c(cc2nc1C(=O)OC(C)(C)C)OC(C)(C)O3)OC
10,143 to 144 °C,CC(=Nc1ccccc1)NC(=S)NCc1cccnc1
11,233 °C,COc1cc(CN2CCN(c3ccc(C(=O)NC4CC4)cc3F)CC2)cc2c1OC(C)C(=O)N2 (stereo not given)
12,219 to 221 °C,CC(C)(C)c1ncn(Sc2ncc([N+](=O)[O-])s2)n1
13,86 to 88 °C,CCCCCCCCCCCCc1ccccc1C(Sc1nnnn1CCCC(=O)O)C(=O)O (stereo not given)
14,121 to 122 °C,Cc1cc2c(c(C)c1N)C(c1ccc(C(C)C)cc1)CS2 (stereo not given)
15,140 to 141 °C,CCOc1cc(OCC)c(C=NNC(=N)NCc2ccccc2)c(OCC)c1
16,75 to 78 °C,CC(C)(C)OC(=O)/C(=C/c1ccccc1Cl)C(=O)c1ccccc1O
17,165 to 167 °C,NC(=O)c1sc2nc(N3CCC(NCC(O)c4ccccn4)CC3)cc(C(F)(F)F)c2c1N (stereo not given)
18,205 to 206 °C,CCOC(=O)c1ccc2c(c1)C(=O)C(=O)N2
19,228 °C,CCOC(=O)c1cnn(-c2c(Cl)cc(Cl)cc2Cl)c1O
20,102 to 110 °C,COc1c2ccccc2c(-c2cc(Br)c(O[C@H](Cc3ccccc3)C(=O)O)c(Br)c2)c2c1sc1ccccc12
21,227 °C,Cn1c(=O)n(Cc2ccccc2)c(=O)c2cc(C(=O)O)ccc21
22,217 to 220 °C,CCOC(=O)c1cc(NC(=O)C(Cc2cscn2)NC(=O)OC(C)(C)C)c[nH]1 (stereo not given)
23,141 to 144 °C,CCC(=NO)c1ccncc1
24,53 to 55 °C,COC(=O)c1cnc(Cl)c2ccccc12

row,melting point,SMILES
1,96 to 98 °C,CCNS(=O)(=O)c1cc(C)c2cc(C(C)C)ccc(C)c1-2
2,188 to 190 °C,Cc1cc2ncn(C)c(=O)c2s1
3,153 to 154 °C,CNC(=O)c1cnn2c(C(=O)N3CCN(C(=O)OC(C)(C)C)CC3)c(Cc3cccc(F)c3C)c(-c3ccccc3)c2c1
4,87 to 89 °C,CSc1nccc(-c2ccccc2)n1
5,199 to 201 °C,O=C1CCC(O)=C1Cc1ccc(Br)cc1
6,106 to 107 °C,CCCCOCCOc1ccc(-c2cnc(N3CCCC3)c(/C=C(\C)C(=O)O)c2)cc1
7,130 °C,OC1(COc2cccc3ccccc23)CCN(Cc2ccccc2)C1 (stereo not given)
8,250 °C,O=CN1[C@@H](c2cccnc2)SC[C@H]1C(=O)O
9,234 to 235 °C,CNc1cc(NS(=O)(=O)c2cccc(C(F)(F)F)c2)nc(NC)n1
10,191 to 193 °C,COc1ccc2c(c1OC)CCC(NC(=O)CCCCC(=O)NCCc1ccccc1)C2 (stereo not given)
11,164 to 167 °C,O=C1c2ccccc2CCC1CN1CCC(O)(c2ccccc2)CC1 (stereo not given)
12,170 to 172 °C,CCOC(=O)CCCCC(=O)c1[nH]c(=O)[nH]c1C
13,179 to 180 °C,CC1CC2=C(Cc3ccccc32)C([Si](C)(C)C2CC(C)CC3=C2Cc2ccccc23)C1 (stereo not given)
14,212 °C,CC1(C)C(=O)C(c2ccc(S(C)(=O)=O)cc2)=C1c1ccc(S(C)(=O)=O)cc1
15,77 to 84 °C,CCOC(=O)N1CCN(CCCN2C(=O)c3ccccc3C2=O)CC1
16,81 to 82.5 °C,Fc1ccccc1C(c1ccccc1)n1cccc1 (stereo not given)
17,250 to 253 °C,O=C1Nc2ccccc2Oc2ncccc21
18,137 to 138 °C,"CC(C)(C)OC(=O)N1CC(CC(=O)O)c2ccccc21 (single isomer, unassigned; (+))"
19,75 to 80 °C,OCC1OC(n2cnc3c(NCC(c4ccc(F)cc4)c4ccc(F)cc4)ncnc32)C(O)C1O (stereo not given)
20,75 to 77 °C,CC1CN(c2ccc(N3CC(CNc4nccs4)OC3=O)cc2F)CCC1=CC#N (stereo not given)
21,76 °C,O=C(OCCCO)c1cc([N+](=O)[O-])cc([N+](=O)[O-])c1
22,206 °C,Clc1ccc(-c2c(-c3ccccc3)nn3ccccc23)nn1
23,127 to 130 °C,CC1CCC(C)N1CCNc1ccnc2cc(Cl)ccc12 (stereo not given)
24,102 °C,CC(=O)CCC1CCC2C(C=CC3=CCCc4c3n2c2ccncc42)C1 (stereo not given)

row,melting point,SMILES
1,94 to 95 °C,Cc1oc(-c2ccc(C(F)(F)F)cc2)nc1COc1ccc(CN(O)C(=O)NN)cc1
2,68 to 70 °C,CCCCC(=Nc1sccc1C(=O)NCCC)OC
3,132 to 138 °C,CC(C)C(=O)N(O)C(C)c1cc2ccccc2s1 (stereo not given)
4,142 to 143 °C,CCOC(=O)COc1cc(O)c(C(=O)CN2Cc3cc(C(N)=S)ccc3C2=O)cc1OCC(=O)OCC
5,264 to 265 °C,O=c1[nH]c(=S)[nH]c2c1cnn2CC(O)c1ccccc1 (stereo not given)
6,81.5 to 84.5 °C,O=C(c1ccccc1)N(c1ccccc1)c1ccc(OCCN2CCOCC2)cc1
7,> 250 °C,CCOC(=O)CC[C@H](NC(=O)c1ccc(C#Cc2cnc3nc(NC(=O)C(C)(C)C)nc(O)c3c2)cc1)C(=O)OCC
8,89 to 90 °C,COc1cc2c(cc1OCc1ccccc1)C(OC)CN(Cc1cc(OC)c(OC)c(OC)c1)C2 (stereo not given)
9,199 to 203 °C,Nc1ccc(C(=O)C(O)c2ccccc2)cc1 (stereo not given)
10,104 to 105 °C,Cc1ccc(C)n1CCNC(=O)c1ccc(Cl)cc1
11,152 to 153 °C,CC(C)c1cccc(C(C)C)c1NC(=O)NCCN1CCN(CCSc2nc3ccccc3o2)CC1
12,205 to 208 °C,CC(=O)N(C)c1c(I)c(NC(=O)CCCCCCCC(=O)O)c(I)c(C(=O)O)c1I
13,216 to 219 °C,Cc1cn2c(N)c(Cl)cc(C(=O)NCC3CCN(CC(C)C)CC3)c2n1
14,199 to 200 °C,NC(=O)C1(N2C(=O)c3cccc(Br)c3C2=O)CCCCC1
15,214 °C,CCc1cn2ccccc2c1S(=O)(=O)c1ccc(O)c(C)c1
16,117 to 118 °C,O=C(O)CSC(CCc1ccccc1)c1ccc(OCc2ccc3ccccc3n2)cc1 (stereo not given)
17,295 to 297 °C,CC(=O)Cc1ccc2c(c1)-c1[nH]c3ccc(C(F)(F)F)cc3c1CC(=O)N2
18,84.5 to 87 °C,Cc1cccc2c1nc(COc1ccc(Cl)cc1)n2CCC(C)CNCc1ccccc1 (racemic)
19,205 to 208 °C,COc1ccc(NC(=O)Nc2ccc(Cl)c(Cl)c2)cc1NS(=O)(=O)c1cccs1
20,174 to 178 °C,CC(C)(C)OC(=O)N1CCC(c2nc3ccc(-c4ccc(S(C)(=O)=O)cc4F)cc3o2)CC1
21,163 to 165 °C,CC1(N)CN=CC=C1N (stereo not given)
22,99 to 100 °C,CCC1CC(C)C(=O)C=C1c1ccc(OCC(=O)O)c(Cl)c1Cl (stereo not given)
23,77 to 78 °C,CCOC(=O)CCc1ccc(SCc2coc(/C=C/c3ccccc3)n2)cc1
24,143 °C,CC1(C)CC(C)(C)c2cc(CC(=O)O)ccc21

row,melting point,SMILES
1,99.5 to 102 °C,Clc1nc2ccccc2nc1OCCOc1ccccc1
2,74 to 76 °C,COc1ccc(C(=O)c2ccccc2)c(S)c1
3,194 to 197 °C,Cc1ccc(S(=O)(=O)NC(=O)Nc2ccc(C(F)(F)F)cc2)cc1
4,174 °C,Fc1ccc(Cn2c(NC3CCN(CCSc4nc5ccccc5o4)CC3)nc3ccccc32)cc1
5,164 °C,CCOC(=O)c1cc2cc(C)c(C)cc2[nH]1
6,175 °C,Cc1c(C)c2c(c(C)c1O)CC(C)C(C(=S)Nc1ccccc1)O2 (stereo not given)
7,155 to 156 °C,Cc1ncc2c(n1)-c1ccc(Cl)cc1C(c1ccccc1Cl)N(C)C2 (stereo not given)
8,96 °C,COc1cc(C(C)=O)c(OC)cc1Cl
9,129 to 130 °C,N#CNC(=NCCCOc1ccccc1)Nc1cncc(Br)c1
10,74 to 76 °C,CC(=O)OCc1ccc(OCC(OC(C)=O)c2cc3cc(C(C)C)ccc3o2)cc1 (stereo not given)
11,102 to 104 °C,CC1CC(C)CN(c2nccc(Oc3ccc(NC(=O)c4cc(F)cc(N5CCOCC5)c4)c4ccccc34)n2)C1 (stereo not given)
12,215 to 216 °C,COC(=O)c1ccc(Cc2cccc3ccc(C(N)=O)cc23)c(OC)c1
13,113 to 115 °C,Fc1cccc(C2OC3(CCN(Cc4ccccc4)CC3)N3CCCCC23)c1 (stereo not given)
14,130 °C,O=C(N[C@H]1CCN(CCCOc2ccc(F)cc2)C[C@H]1O)c1ccccc1 (relative stereo)
15,94 to 95 °C,O=C1c2ccccc2C(=O)N1CCCCN1CCN(c2csc3cc(F)ccc23)CC1
16,210 to 220 °C,CC(Oc1ccc2nc(-c3ccccc3OC(N)=O)sc2c1)c1c(F)ccc(Cl)c1Cl (stereo not given)
17,190 to 193 °C,CC(=O)S[C@@H]1C[C@@H](C(=O)N(CCc2ccccc2)CC(=O)O)N(S(=O)(=O)c2ccc3ccccc3c2)C1
18,189 to 192 °C,Cc1cccc(C)c1-n1c(C)nnc1S
19,246 °C,O=c1c2c(O)c(O)ccc2c2cc(O)c(O)cc2n1Cc1ccc(Cl)c(Cl)c1
20,> 260 °C,COc1cc(OC)c(-c2cc3ccccc3s2)cc1/C=C/C(=O)c1ccc(Nc2c(N)c(=O)c2=O)cc1
21,315 to 317 °C,CS(=O)(=O)N1CCn2c(nc3c(N)nc4cc(Br)ccc4c32)C1
22,228 to 230 °C,CC(C)=CCOc1ccc(C(=O)C=Cc2c[nH]c3ccccc23)c(O)c1
23,105 to 106 °C,CC(=O)NC1(C)CCN(Cc2ccccc2)C1 (stereo not given)

row,SMILES,melting point
1,N#CC1CN1C(=O)c1cc2ccccc2o1 (stereo not given),92 to 94 °C
2,NCCCCCCO[PH](=O)CC(=O)O (stereo not given),236 to 238 °C
3,Cc1cc(C)n(CCOc2cc3c(cc2C)OC2(CC(C)(C)c4cc(O)c(C)cc4O2)CC3(C)C)n1 (stereo not given),223 to 225 °C
4,CCC1(c2cccc([N+](=O)[O-])c2)C(=O)NC(=O)NC1=O,283 to 284 °C
5,CCCCCCCCN1CC=C(c2c[nH]c(-c3ccc(F)cc3)c2-c2ccncc2)CC1,173 to 175 °C

# From a melting point compilation (Tetko et al.; mined from patent text by program, amines drawn as free bases though some values may be those of a salt)
